US20240299385A1 (ReWind Therapeutics NV, priority 2021, published 2024)
pIC50: −log10 of the molar value.

Target: T1, human GPR17 receptor (Homo sapiens, UniProt Q13304)
T1 construct: host or cells: HEK-293
Assay: Calcium mobilization functional assay (Fluo-8, FLIPR TETRA) in HEK-293 hGPR17 (Gα-q assay)
Assay type: cell-based
Settings: antagonism of MDL29,951 (~EC80) induced Ca2+ signal; cell line (HEK-293 hGPR17 or HEK-293 Suchi5 hGPR17) not given
Method in brief: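 Fluo-8-loaded HEK-293 hGPR17 cells (60 min dye loading, room temperature) were preincubated with compound for twenty minutes, then challenged with agonist MDL29,951 at ~EC80, 500 nM. Intracellular calcium release via Gα-q was recorded as FLIPR fluorescence for a further 2 minutes; compounds tested in duplicate.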

T1 sequence (Q13304 whole entry): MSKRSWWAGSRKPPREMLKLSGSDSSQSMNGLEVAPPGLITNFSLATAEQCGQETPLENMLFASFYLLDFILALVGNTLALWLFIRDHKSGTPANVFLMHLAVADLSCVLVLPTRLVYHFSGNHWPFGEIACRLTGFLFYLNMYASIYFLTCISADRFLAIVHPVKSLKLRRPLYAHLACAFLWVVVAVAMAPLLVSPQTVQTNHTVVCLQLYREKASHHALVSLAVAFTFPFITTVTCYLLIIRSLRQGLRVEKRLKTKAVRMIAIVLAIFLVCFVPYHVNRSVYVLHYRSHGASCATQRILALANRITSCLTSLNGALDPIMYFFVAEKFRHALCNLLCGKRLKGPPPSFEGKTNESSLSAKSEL

Structure (SMILES)	pIC50
O=S(=O)(Nc1cc(F)c(OC(F)F)cc1F)c1c[nH]c(-c2nccs2)c1 [Cpd 403, N-[4-(difluoromethoxy)-2,5-difluorophenyl]-5-(1,3-thiazol-2-yl)-1H-pyrrole-3-sulfonamide]	> 6.30
O=S(=O)(Nc1cc(F)c(OC(F)F)cc1F)c1c[nH]c(-c2ncccc2F)c1 [Cpd 404, N-[4-(difluoromethoxy)-2,5-difluorophenyl]-5-(3-fluoropyridin-2-yl)-1H-pyrrole-3-sulfonamide]	> 6.30
N#Cc1cc(F)c(NS(=O)(=O)c2c[nH]cc2Cc2ccccc2)cc1F [Cpd 407, 4-benzyl-N-(4-cyano-2,5-difluorophenyl)-1H-pyrrole-3-sulfonamide]	> 6.30
O=S(=O)(Nc1ncc(OC(F)F)cc1F)c1c[nH]c(-c2ccccc2)c1 [Cpd 408, N-[5-(difluoromethoxy)-3-fluoropyridin-2-yl]-5-phenyl-1H-pyrrole-3-sulfonamide]	5.30 to 6.30
O=S(=O)(Nc1cc(F)c(OC(F)F)cc1F)c1c[nH]c(-c2ccccc2F)c1 [Cpd 409, N-[4-(difluoromethoxy)-2,5-difluorophenyl]-5-(2-fluorophenyl)-1H-pyrrole-3-sulfonamide]	> 6.30
O=S(=O)(Nc1cc(F)c(OC(F)F)cc1F)c1c[nH]c(-c2cc(Cl)ccc2F)c1 [Cpd 410, 5-(5-chloro-2-fluorophenyl)-N-[4-(difluoromethoxy)-2,5-difluorophenyl]-1H-pyrrole-3-sulfonamide]	5.30 to 6.30
O=S(=O)(Nc1cc(F)c(OC(F)F)cc1F)c1c[nH]c(-c2ccc(F)cc2)c1 [Cpd 411, N-[4-(difluoromethoxy)-2,5-difluorophenyl]-5-(4-fluorophenyl)-1H-pyrrole-3-sulfonamide]	5.30 to 6.30
O=S(=O)(Nc1cc(F)c(OC(F)F)cc1F)c1c[nH]c(-c2ccc(F)cc2F)c1 [Cpd 412, N-[4-(difluoromethoxy)-2,5-difluorophenyl]-5-(2,4-difluorophenyl)-1H-pyrrole-3-sulfonamide]	5.30 to 6.30
O=S(=O)(Nc1cc(F)c(Br)cc1F)c1c[nH]c(-c2ccccc2F)c1 [Cpd 413, N-(4-bromo-2,5-difluorophenyl)-5-(2-fluorophenyl)-1H-pyrrole-3-sulfonamide]	> 6.30
O=S(=O)(Nc1cc(F)c(Br)cc1F)c1c[nH]c(-c2cc(Cl)ccc2F)c1 [Cpd 414, N-(4-bromo-2,5-difluorophenyl)-5-(5-chloro-2-fluorophenyl)-1H-pyrrole-3-sulfonamide]	5.30 to 6.30
N#CCOc1cc(F)c(NS(=O)(=O)c2c[nH]cc2Cc2ccccc2)cc1F [Cpd 415, 4-benzyl-N-[4-(cyanomethoxy)-2,5-difluorophenyl]-1H-pyrrole-3-sulfonamide]	5.30 to 6.30
N#Cc1cc(F)c(NS(=O)(=O)c2c[nH]cc2Cc2cccs2)cc1F [Cpd 416, N-(4-cyano-2,5-difluorophenyl)-4-(thiophen-2-ylmethyl)-1H-pyrrole-3-sulfonamide]	> 6.30
O=S(=O)(Nc1cc(F)c(Br)cc1F)c1c[nH]cc1Cc1cccs1 [Cpd 417, N-(4-bromo-2,5-difluorophenyl)-4-(thiophen-2-ylmethyl)-1H-pyrrole-3-sulfonamide]	5.30 to 6.30
O=S(=O)(Nc1cc(F)c(C(F)(F)F)cc1F)c1c[nH]cc1Cc1cccs1 [Cpd 418, N-[2,5-difluoro-4-(trifluoromethyl)phenyl]-4-(thiophen-2-ylmethyl)-1H-pyrrole-3-sulfonamide]	> 6.30
O=S(=O)(Nc1cc(OC(F)F)c(Cl)cc1F)c1c[nH]c(-c2ccccn2)c1 [Cpd 419, N-[4-chloro-5-(difluoromethoxy)-2-fluorophenyl]-5-pyridin-2-yl-1H-pyrrole-3-sulfonamide]	5.30 to 6.30
Cc1ccc(-c2c[nH]cc2S(=O)(=O)Nc2ccc(C#N)cc2F)s1 [Cpd 420, N-(4-cyano-2-fluorophenyl)-4-(5-methylthiophen-2-yl)-1H-pyrrole-3-sulfonamide]	> 6.30
N#Cc1ccc(NS(=O)(=O)c2c[nH]c(C3CCCCC3)c2)c(F)c1 [Cpd 421, N-(4-cyano-2-fluorophenyl)-5-cyclohexyl-1H-pyrrole-3-sulfonamide]	5.30 to 6.30
COc1nc(Cl)c(F)cc1NS(=O)(=O)c1c[nH]c(-c2ccccc2)c1 [Cpd 422, N-(6-chloro-5-fluoro-2-methoxypyridin-3-yl)-5-phenyl-1H-pyrrole-3-sulfonamide]	> 6.30
O=S(=O)(Nc1cc(F)c(C(F)(F)F)cc1F)c1c[nH]c(C2CCCCC2)c1 [Cpd 423, 5-cyclohexyl-N-[2,5-difluoro-4-(trifluoromethyl)phenyl]-1H-pyrrole-3-sulfonamide]	5.30 to 6.30
O=S(=O)(Nc1cc(F)c(C(F)(F)F)cc1F)c1c[nH]c(C2CCOC2)c1 (stereo not drawn) [Cpd 424, N-[2,5-difluoro-4-(trifluoromethyl)phenyl]-5-(oxolan-3-yl)-1H-pyrrole-3-sulfonamide]	5.30 to 6.30
O=S(=O)(Nc1cc(OC(F)F)c(Cl)cc1F)c1c[nH]cc1-c1cccc(F)c1 [Cpd 425, N-[4-chloro-5-(difluoromethoxy)-2-fluorophenyl]-4-(3-fluorophenyl)-1H-pyrrole-3-sulfonamide]	5.30 to 6.30

Structure (SMILES)	pIC50
O=S(=O)(Nc1cc(OC(F)F)c(Cl)cc1F)c1c[nH]cc1Cc1ccccc1 [Cpd 426, 4-benzyl-N-[4-chloro-5-(difluoromethoxy)-2-fluorophenyl]-1H-pyrrole-3-sulfonamide]	5.30 to 6.30
COc1nc(Cl)c(F)cc1NS(=O)(=O)c1c[nH]cc1Cc1ccccc1 [Cpd 427, 4-benzyl-N-(6-chloro-5-fluoro-2-methoxypyridin-3-yl)-1H-pyrrole-3-sulfonamide]	5.30 to 6.30
COc1nc(Cl)c(F)cc1NS(=O)(=O)c1c[nH]cc1-c1cccc(F)c1 [Cpd 428, N-(6-chloro-5-fluoro-2-methoxypyridin-3-yl)-4-(3-fluorophenyl)-1H-pyrrole-3-sulfonamide]	5.30 to 6.30
COc1cc(OC(F)F)cnc1NS(=O)(=O)c1c[nH]c(-c2ccccc2)c1 [Cpd 429, N-[5-(difluoromethoxy)-3-methoxypyridin-2-yl]-5-phenyl-1H-pyrrole-3-sulfonamide]	5.30 to 6.30
O=S(=O)(Nc1cc(F)c(C(F)(F)F)cc1F)c1c[nH]c(C2CCC2)c1 [Cpd 430, 5-cyclobutyl-N-(2,5-difluoro-4-(trifluoromethyl)phenyl)-1H-pyrrole-3-sulfonamide]	> 6.30
COc1nc(Br)cnc1NS(=O)(=O)c1c[nH]cc1Cc1ccccc1 [Cpd 431, 4-benzyl-N-(5-bromo-3-methoxypyrazin-2-yl)-1H-pyrrole-3-sulfonamide]	4.30 to 5.30
O=S(=O)(Nc1ncc(OCC(F)F)cc1F)c1c[nH]cc1Cc1ccccc1 [Cpd 432, 4-benzyl-N-[5-(2,2-difluoroethoxy)-3-fluoropyridin-2-yl]-1H-pyrrole-3-sulfonamide]	5.30 to 6.30
COc1cc(OC(F)F)cnc1NS(=O)(=O)c1c[nH]cc1Cc1ccccc1 [Cpd 433, 4-benzyl-N-[5-(difluoromethoxy)-3-methoxypyridin-2-yl]-1H-pyrrole-3-sulfonamide]	4.30 to 5.30
O=S(=O)(Nc1ncc(OCC(F)F)cc1F)c1c[nH]c(-c2ccccc2)c1 [Cpd 434, N-[5-(2,2-difluoroethoxy)-3-fluoropyridin-2-yl]-5-phenyl-1H-pyrrole-3-sulfonamide]	5.30 to 6.30
COc1nc(Br)cnc1NS(=O)(=O)c1c[nH]c(-c2ccccc2)c1 [Cpd 435, N-(5-bromo-3-methoxypyrazin-2-yl)-5-phenyl-1H-pyrrole-3-sulfonamide]	5.30 to 6.30
COc1nc(OCC(F)F)c(F)cc1NS(=O)(=O)c1c[nH]c(-c2ccccc2)c1 [Cpd 436, N-[6-(2,2-difluoroethoxy)-5-fluoro-2-methoxypyridin-3-yl]-5-phenyl-1H-pyrrole-3-sulfonamide]	> 6.30
N#Cc1ccc(NS(=O)(=O)c2c[nH]cc2-c2cccnc2)c(F)c1 [Cpd 437, N-(4-cyano-2-fluorophenyl)-4-(pyridin-3-yl)-1H-pyrrole-3-sulfonamide]	4.30 to 5.30
O=S(=O)(Nc1ncc(OCC(F)F)cc1F)c1c[nH]cc1-c1cccc(F)c1 [Cpd 438, N-[5-(2,2-difluoroethoxy)-3-fluoropyridin-2-yl]-4-(3-fluorophenyl)-1H-pyrrole-3-sulfonamide]	4.30 to 5.30
N#Cc1cc(F)c(NS(=O)(=O)c2c[nH]cc2Cc2ccccc2)cc1Cl [Cpd 439, 4-benzyl-N-(5-chloro-4-cyano-2-fluorophenyl)-1H-pyrrole-3-sulfonamide]	> 6.30
Cc1cc(NS(=O)(=O)c2c[nH]cc2Cc2ccccc2)c(F)cc1C#N [Cpd 440, 4-benzyl-N-(4-cyano-2-fluoro-5-methylphenyl)-1H-pyrrole-3-sulfonamide]	> 6.30
N#Cc1ccc(NS(=O)(=O)c2c[nH]c(-c3ccoc3)c2)c(F)c1 [Cpd 441, N-(4-cyano-2-fluorophenyl)-5-(furan-3-yl)-1H-pyrrole-3-sulfonamide]	> 6.30
N#Cc1ccc(NS(=O)(=O)c2c[nH]c(-c3cccc4ccoc34)c2)c(F)c1 [Cpd 442, 5-(1-benzofuran-7-yl)-N-(4-cyano-2-fluorophenyl)-1H-pyrrole-3-sulfonamide]	> 6.30
N#Cc1ccc(NS(=O)(=O)c2c[nH]c(-c3cccc4c3OCC4)c2)c(F)c1 [Cpd 443, N-(4-cyano-2-fluorophenyl)-5-(2,3-dihydro-1-benzofuran-7-yl)-1H-pyrrole-3-sulfonamide]	> 6.30
COc1nc(OCC(F)F)c(F)cc1NS(=O)(=O)c1c[nH]cc1Cc1ccccc1 [Cpd 444, 4-benzyl-N-[6-(2,2-difluoroethoxy)-5-fluoro-2-methoxypyridin-3-yl]-1H-pyrrole-3-sulfonamide]	5.30 to 6.30
N#Cc1ccc(NS(=O)(=O)c2c[nH]c(-c3ccco3)c2)c(F)c1 [Cpd 445, N-(4-cyano-2-fluorophenyl)-5-(furan-2-yl)-1H-pyrrole-3-sulfonamide]	> 6.30
O=S(=O)(Nc1cc(F)c(Br)cc1F)c1c[nH]c(-c2ccc(F)cc2)c1 [Cpd 446, N-(4-bromo-2,5-difluorophenyl)-5-(4-fluorophenyl)-1H-pyrrole-3-sulfonamide]	5.30 to 6.30
